Reference: patent publication US20230357253A1, “AGONISTS OF STIMULATOR OF INTERFERON GENES STING” (THE SCRIPPS RESEARCH INSTITUTE, priority 2020, published 2023)

How the values were obtained:
THP-1 Lucia ISG cells = assay: ISRE-luciferase assay (ISG-LUC activation); format: cell-based; settings: Homo sapiens, THP1-Lucia ISG, 24 hours, luciferase reporter
How it was run: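 THP-1 Lucia ISG cells at 5×10^5 cells/ml in 2% FBS medium were treated with test article or DMSO vehicle for 24 h. Secreted luciferase was read by luminescence and normalized to vehicle, reported as RLU.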

human STING protein = human STING protein (Homo sapiens (Human), UniProt Q86WV6); assay: WT STING binding assay (HTRF, competition with labeled 2′3′cGAMP); settings: recombinant 6×His-tagged human STING, three hours at room temperature
Chain of human STING protein (Q86WV6 whole entry): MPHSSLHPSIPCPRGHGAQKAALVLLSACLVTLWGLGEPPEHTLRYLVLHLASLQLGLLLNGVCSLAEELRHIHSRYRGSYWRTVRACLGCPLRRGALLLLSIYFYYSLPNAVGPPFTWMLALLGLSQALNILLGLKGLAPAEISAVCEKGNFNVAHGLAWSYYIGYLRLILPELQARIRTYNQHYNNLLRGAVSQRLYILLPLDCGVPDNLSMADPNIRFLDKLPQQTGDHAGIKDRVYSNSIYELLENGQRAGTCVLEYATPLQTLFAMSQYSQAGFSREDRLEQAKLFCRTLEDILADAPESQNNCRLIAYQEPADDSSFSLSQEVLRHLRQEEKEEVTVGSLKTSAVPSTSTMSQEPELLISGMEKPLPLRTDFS
How it was run: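 Competitive HTRF binding: 10-point compound titration incubated 3 h at room temperature with 6×His-tagged human STING and labeled 2′3′cGAMP; FRET read at 665 nm. IC50 by curve fitting; percent inhibition relative to maximal binding of unlabeled 2′3′cGAMP control.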

An EC50 (THP-1 Lucia ISG cells) of 500 to 5000 nM and an IC50 (human STING protein) of 100 to 1000 nM were found for C#Cc1cc(C(=O)O)c(NC(=O)c2ccc(-n3ccnc3)nn2)cc1CCOc1cc(NC(=O)c2ccc(-n3ccnc3)nn2)c(C(=O)O)cc1F [Compound 183] in this work.
An EC50 (THP-1 Lucia ISG cells) of 500 to 5000 nM and an IC50 (human STING protein) of 10 to 100 nM were found for O=C(Nc1cc(CSCc2cc(NC(=O)c3ccc4nnnn4n3)c(C(=O)O)cc2F)c(F)cc1C(=O)O)c1ccc(-n2ccnc2)nn1 [Compound 184] in this work.
An EC50 (THP-1 Lucia ISG cells) of 500 to 5000 nM and an IC50 (human STING protein) of 10 to 100 nM were found for CC(COc1cc(NC(=O)c2ccc(-n3ccnc3)nn2)c(C(=O)O)cc1F)COc1cc(NC(=O)c2ccc(-n3ccnc3)nn2)c(C(=O)O)cc1F [Compound 185] in this work.
An EC50 (THP-1 Lucia ISG cells) of 50 to 500 nM and an IC50 (human STING protein) of 10 to 100 nM were found for O=C(Nc1cc(CCc2cc(NC(=O)c3ccc(-n4ccnc4)nn3)c(C(=O)O)cc2F)c(F)cc1C(=O)O)c1ccc(-n2ccnc2)nn1 [Compound 187] in this work.
An EC50 (THP-1 Lucia ISG cells) of 500 to 5000 nM and an IC50 (human STING protein) of 10 to 100 nM were found for O=C(Nc1cc(CCCc2cc(NC(=O)c3cc4nnnn4nn3)c(C(=O)O)cc2F)c(F)cc1C(=O)O)c1ccc(-c2cn[nH]c2)nn1 [Compound 192] in this work.
An EC50 (THP-1 Lucia ISG cells) of 50 to 500 nM and an IC50 (human STING protein) of 10 to 100 nM were found for O=C(Nc1cc(CCOc2cc(NC(=O)c3ccc4nnnn4n3)c(C(=O)O)cc2F)c(Cl)cc1C(=O)O)c1ccc(-n2ccnc2)nn1 [Compound 196] in this work.
An EC50 (THP-1 Lucia ISG cells) of 50 to 500 nM and an IC50 (human STING protein) of 10 to 100 nM were found for O=C(Nc1cc(CCOc2cc(NC(=O)c3ccc(-n4ccnc4)nn3)c(C(=O)O)cc2Cl)c(F)cc1C(=O)O)c1ccc(-n2ccnc2)nn1 [Compound 197] in this work.
An EC50 (THP-1 Lucia ISG cells) of 50 to 500 nM and an IC50 (human STING protein) of 10 to 100 nM were found for O=C(Nc1cc(CCCCc2cc(NC(=O)c3ccc(-n4ccnc4)nn3)c(C(=O)O)cc2F)c(F)cc1C(=O)O)c1ccc(-n2ccnc2)nn1 [Compound 202] in this work.
An EC50 (THP-1 Lucia ISG cells) of 500 to 5000 nM and an IC50 (human STING protein) of 10 to 100 nM were found for O=C(Nc1cc(OCCCOc2cc(NC(=O)c3ccc(-n4ccnc4)nn3)c(C(=O)O)cc2F)ccc1C(=O)O)c1ccc(-n2ccnc2)nn1 [Compound 203] in this work.
